Assays:
Erwinia amylovora Ea110 = assay: Measurement of bacterial growth inhibition / MIC in LB broth; assay type: cell-based
Experimental: The highly-virulent strain E. amylovora Ea110, which was isolated from an apple orchard in Michigan (Zhao et al., 2005), was used in this study. Bacterial strains were stored at −80° C. in 15% glycerol and cultured in Luria-Bertani (LB) medium at 28° C. PNA-CPP was synthesized using Bts oligomerization method by Panagene Inc (Daejeon, Korea). Streptomycin and PNA-CPP were implemented at rates indicated in each assay.
Erwinia amylovora Ea110 was cultured in LB broth overnight and then cell concentrations were adjusted to 5×10^5 CFU/ml in LB broth. A total of 80 μl of the bacterial suspension in LB was added into each well of a 96 well plate. Lyophilized PNA-CPP was resuspended in water to a stock concentration of 100 μM and was serial diluted. Twenty μl of the diluted PNA-CPP solution was added into each well that contained 80 μl of the bacterial suspension in LB to make the final concentrations indicated in each assay. Water and streptomycin were added to the wells as negative and positive controls. The plate was incubated at 28° C. with orbital shaking in a BioTek Synergy H1 microplate reader (BioTek, Winooski, Vt., USA) for 20 hr. During the incubation, the OD 600 of each well was measured every 10 min. The lowest concentration of a PNA-CPP that prevented growth after 20 hr represented the MIC. Three replicates were included in each testing, and the experiment was repeated twice.

[1] = test system: apple flower-associated bacteria; assay: Susceptibility of apple flower-associated bacteria and biocontrol strains (panel); assay type: cell-based; conditions: streptomycin 20 μM
Experimental: Fifty flowers were collected from apple trees Malus×domestica ‘McIntosh’ from the Hamden, Conn. Lockwood farm in May 2016. The stigmas from all 50 flowers were removed, placed into 3 ml of 0.5×PBS, vortexed for 20 seconds, and sonicated for 5 min in a water bath sonicator to release the stigma associated bacteria. PBS buffer containing bacteria cells was serially diluted (10×, 100× and 1000×) and plated on LB agar medium and incubated at 28° C. for 48 h. On the basis of morphological colony characteristics, 200 bacterial colonies were shortlisted, sub-cultured, and identified using 16s rDNA sequencing using the forward primer 63f (5′-CAGGCCTAACACATGCAAGTC-3′) (SEQ ID NO: 10) and reverse primer 1387r (5′-GGG CGG WGT GTA CAA GGC-3′) (SEQ ID NO: 11). Fifteen different species were selected from the 200 bacterial cultures for testing against anti-acpP-CPP1 and streptomycin. Biological control agents Pseudomonas fluorescence A506, Bacillus amyloliquefaciens D747 and Pantoea agglomerans E325 were isolated from the original products on LB agar plate.
Compared to the traditional antibiotics that kill microbes with little selection, antisense antimicrobials inhibit bacterial growth through a sequence specific manner. […] Two hundred bacterial colonies were subcultured, and the identities of these colonies were determined by 16S rDNA sequencing. […]

acpP mRNA = assay: Northern blot detection of acpP expression in treated cells; assay type: cell-based, Erwinia amylovora; conditions: streptomycin 1 μM and 3 μM, 15.5 hrs post inoculation
Experimental: E. amylovora Ea110 was inoculated into LB broth at the final concentration of 5×10^5 CFU/ml, and was treated with various concentrations of PNA-CPP, water, or streptomycin. The inoculated cells were incubated at 28° C. with orbital shaking, and were collected for RNA isolation at 15.5 hrs post inoculation. Total bacterial RNA was isolated using the RNeasy Protect Bacteria Mini Kit (Qiagen, Valencia, Calif., USA) following the manufacturer's instructions. The quality and quantity of RNA was measured with a Nanodrop 2000c (Thermo Scientific, Wilmington, Del., USA).
The probe for acpP detection in Northern blots was synthesized from polymerase chain reaction (PCR) using acpP primers (forward primer 5′-TGGGCGTTAAGCAGGAAGAAG-3′ (SEQ ID NO: 5) and reverse primer 5′-TACGCCTGGTGACCATTGAT (SEQ ID NO: 6)). The PCR product was purified using a QIAquick PCR Purification kit (Qiagen) and labelled using a Biotin DecaLabel DNA Labeling Kit (Thermo Fisher Scientific, Grand Island, N.Y.) as per instruction of kit manual. Thirty micrograms of RNA was loaded for each sample and was separated on a formaldehyde denaturing gel in MOPS buffer. BrightStar®-Plus positively-charged nylon membranes (Thermo Fisher Scientific) were used for transfer of RNA from gel to membrane. […] The biotin signal was detected using a Biotin Chromogenic Detection Kit (Thermo Fisher Scientific).

Compound	MIC (Erwinia amylovora Ea110; Erwinia amylovora, E. amylovora Ea110, LB broth, 28° C., 20 hr, read-out: minimal inhibitory concentration (MIC))	susceptibility of strains tested [1]	acpP mRNA abundance (acpP mRNA)	growth inhibition of E. amylovora (Erwinia amylovora Ea110; LB broth, any concentration tested, compared to water)
[H]/N=C(/N)N[C@H]1[C@H](O)[C@@H](O)[C@H](O[C@@H]2O[C@@H](C)[C@](O)(C=O)[C@H]2O[C@@H]2O[C@@H](CO)[C@H](O)[C@@H](O)[C@@H]2NC)[C@@H](N/C(N)=N\[H])[C@@H]1O [streptomycin]	2 µM	All strains tested are susceptible to streptomycin with the exception of P. fluorescens A506	did not affect	
anti-acpP PNA: 10-nucleotide PNA oligomer 5′-ctcatactat-3′ (SEQ ID NO: 1), antisense to start codon region of acpP, no CPP (CTCATACTAT; all peptide nucleic acid (PNA))				did not display any growth inhibition

Source: patent US20180235210A1, “ANTISENSE COMPOSITIONS TARGETING ERWINIA SPECIES AND METHODS OF USING THE SAME” (priority 2017, published 2018)
